According to patent publication US9139525B2, “N-oxide and/or di-N-oxide derivatives of dopamine receptor stabilizers/modulators displaying improved cardiovascular side-effects profiles” (TEVA PHARMACEUTICALS INTERNATIONAL GMBH, priority 2007, dated 2015):

Key:
[1] = tested on: dopamine, DOPAC and 5-HIAA in the striatum; assay: Microdialysis in rat striatum (freely moving rats; dopamine, DOPAC and 5-HIAA by HPLC with electrochemical detection); assay type: in vivo
Experimental: Microdialysis in Rat Striatum Standard microdialysis experiments were performed on-line in freely moving rats. The striatum was perfused with a Ringer solution and dopamine, DOPAC and 5-HIAA were quantified by HPLC with electrochemical detection.

[2] = after S-3-OTf-3-PPP-N-ox (13) 100 μmol/kg p.o.; between 0 h and 6 h; sampled every 1 h
Experimental: 3-OTf-3-PPP-N-ox was measured at Rt=11.68 min with a +MRM of 368/235. Precursor 3-OTf-3-PPP was measured at Rt=11.50 min with a +MRM of 352/219.

[3] = oral administration, 91 μmol/kg

CCC[N+]1([O-])CCCC(c2cccc(OS(=O)(=O)C(F)(F)F)c2)C1 (centres unmarked) [S-3-PPP triflate-N-oxide, S-Trifluoromethanesulfonic acid 3-(1-propyl-piperidin-3-yl)-phenyl ester-1-oxide]
3,4-dihydroxyphenylacetic acid (DOPAC) level, maximum ([1]; 100 μmol/kg per os): ~150%
dopamine (DA) level, maximum ([1]; 100 μmol/kg per os): about 230%
level of 5-hydroxyindolacetic acid (HIAA) ([1]; 100 μmol/kg per os): around 100%
time of maximum of DA and DOPAC level ([1]; 100 μmol/kg per os): about 120 minutes
course of DA and DOPAC levels after the maximum ([1]; 100 μmol/kg per os, whole experiment (6 h)): constant over the whole experiment
pharmacological effect and duration of action ([1]; microdialysis in rat striatum): pronounced pharmacological effect with a very long duration of action

CCC[N+]1([O-])CC=C(c2cccc(S(C)(=O)=O)c2)CC1 (centres unmarked) [ACR16-ene-N-ox, 4-(3-Methanesulfonyl-phenyl)-1-propyl-1,2,3,6-tetrahydro-pyridine-N-oxide]
DA release [1, 3]: about 300 % of controls
DOPAC release [1, 3]: about 300 % of controls
duration of the effects on DA and DOPAC release [1, 3]: > 4 h

CCC[N+]1([O-])CCC(c2cccc(S(C)(=O)=O)c2)CC1 (centres unmarked) [ACR16 N-oxide, 4-(3-Methanesulfonyl-phenyl)-1-propyl-piperidine-1-oxide]
3,4-dihydroxyphenylacetic acid (DOPAC) level ([1]; 50 μmol/kg per os): slight rise
dopamine (DA) level ([1]; 50 μmol/kg per os, after about 45 minutes): considerable rise
3,4-dihydroxyphenylacetic acid (DOPAC) level ([1]; 100 μmol/kg per os given at 180 minutes after a first 50 μmol/kg per os): goes up
level of dopamine, maximum height ([1]; 100 μmol/kg per os given at 180 minutes after a first 50 μmol/kg per os, peak after 240 minutes): more than 250 % of controls

CCCN1CCC[C@@H](c2cccc(OS(=O)(=O)C(F)(F)F)c2)C1 [(−)-3-PPP triflate, S-3-Trifluoro-methanesulfonyloxy-(1-n-propyl-phenyl)piperidine, reference compound]
3,4-dihydroxyphenylacetic acid (DOPAC) level, maximum ([1]; 100 μmol/kg per os): about 175%
dopamine (DA) level, maximum ([1]; 100 μmol/kg per os): about 175%
level of 5-hydroxyindolacetic acid (HIAA) ([1]; 100 μmol/kg per os): around 100%
time of maximum of DA and DOPAC level ([1]; 100 μmol/kg per os): about 150 minutes
levels of dopamine and DOPAC after about 195 minutes ([1]; 100 μmol/kg per os, after about 195 minutes (3.25 hours)): decrease
dopamine level, second rise ([1]; 100 μmol/kg per os, after about 240 minutes (4 hours)): 350 % of controls
striatal concentration of the precursor after dosing of the N-oxide [2]: continuous rise
